Experiments:
Settings in all cases: incubation time: 72 h
HCC1143 [1] = assay: normalised response (% of control), CellTox Green; higher = less cell death (100 = DMSO, 0 = benzethonium chloride kill control)
Procedure, shortened: (§1)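 Values are normalised signals, each belonging to one concentration of the series. Breast cancer cells (20 µl suspension) were seeded into 384-well plates with compound at 5 concentrations in 10-fold steps over a compound-specific 10,000-fold range and incubated 72 h. Readouts were CellTox Green fluorescence (485/520 nm), then CellTiter-Glo luminescence after 10 min at room temperature, with each plate set to 0.1 % DMSO as 100 and a positive kill control as 0.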

HCC1937 [2] = assay: as above
Procedure, shortened: as §1

CAL-148 [3] = assay: as above
Procedure, shortened: as §1

MDA-MB-231 [4] = assay: as above
Procedure, shortened: as §1

BT-474 [5] = assay: as above
Procedure, shortened: as §1

MFM-223 [6] = assay: as above
Procedure, shortened: as §1

DU-4475 [7] = assay: as above
Procedure, shortened: as §1

MCF-10A [8] = assay: as above
Procedure, shortened: as §1

BT-549 [9] = assay: as above
Procedure, shortened: as §1

HCC1599 [10] = assay: as above
Procedure, shortened: as §1

MDA-MB-468 [11] = assay: as above
Procedure, shortened: as §1

MDA-MB-436 [12] = assay: as above
Procedure, shortened: as §1

CAL-51 [13] = assay: as above
Procedure, shortened: as §1

Hs578T [14] = assay: as above
Procedure, shortened: as §1

CAL-85-1 [15] = assay: as above
Procedure, shortened: as §1

CAL-120 [16] = assay: as above
Procedure, shortened: as §1

MDA-MB-453 [17] = assay: as above
Procedure, shortened: as §1

SK-BR-3 = assay: normalised response (% of control), CellTiter-Glo; higher = more viable cells (100 = DMSO, 0 = benzethonium chloride kill control)
Protocol: (§2)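 DSRT, 72 h incubation, CellTox Green / CellTiter-Glo readout. Signal is normalised to DMSO and benzethonium chloride controls. Value is the normalised response at dose 3.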

HCC1143 [18] = assay: as above
Protocol: as §2

HCC1937 [19] = assay: as above
Protocol: as §2

CAL-148 [20] = assay: as above
Protocol: as §2

MDA-MB-231 [21] = assay: as above
Protocol: as §2

BT-474 [22] = assay: as above
Protocol: as §2

MFM-223 [23] = assay: as above
Protocol: as §2

DU-4475 [24] = assay: as above
Protocol: as §2

MCF-10A [25] = assay: as above
Protocol: as §2

BT-549 [26] = assay: as above
Protocol: as §2

HCC1599 [27] = assay: as above
Protocol: as §2

MDA-MB-468 [28] = assay: as above
Protocol: as §2

MDA-MB-436 [29] = assay: as above
Protocol: as §2

HDQ-P1 = assay: as above
Protocol: as §2

CAL-51 [30] = assay: as above
Protocol: as §2

Hs578T [31] = assay: as above
Protocol: as §2

CAL-85-1 [32] = assay: as above
Protocol: as §2

CAL-120 [33] = assay: as above
Protocol: as §2

MDA-MB-453 [34] = assay: as above
Protocol: as §2

CO[C@H]1C[C@@H]2CC[C@@H](C)[C@@](O)(O2)C(=O)C(=O)N2CCCC[C@H]2C(=O)O[C@H]([C@H](C)C[C@@H]2CC[C@@H](OP(C)(C)=O)[C@H](OC)C2)CC(=O)[C@H](C)/C=C(\C)[C@@H](O)[C@@H](OC)C(=O)[C@H](C)C[C@H](C)/C=C/C=C/C=C/1C [Ridaforolimus] (1 nM)
normalised response (HCC1143 [1]): 111%
normalised response (HCC1937 [2]): 119%
normalised response (CAL-148 [3]): 82.1%
normalised response (MDA-MB-231 [4]): 107%
normalised response (BT-474 [5]): 101%
normalised response (MFM-223 [6]): 105%
normalised response (DU-4475 [7]): 98.9%
normalised response (MCF-10A [8]): 94.6%
normalised response (BT-549 [9]): 84.4%
normalised response (HCC1599 [10]): 111%
normalised response (MDA-MB-468 [11]): 115%
normalised response (MDA-MB-436 [12]): 75.3%
normalised response (CAL-51 [13]): 106%
normalised response (Hs578T [14]): 81%
normalised response (CAL-85-1 [15]): 95.2%
normalised response (CAL-120 [16]): 103%
normalised response (MDA-MB-453 [17]): 101%
normalised response (SK-BR-3): 73.5%
normalised response (HCC1143 [18]): 81.1%
normalised response (HCC1937 [19]): 79.2%
normalised response (CAL-148 [20]): 89.3%
normalised response (MDA-MB-231 [21]): 93.7%
normalised response (BT-474 [22]): 94%
normalised response (MFM-223 [23]): 84.7%
normalised response (DU-4475 [24]): 92.7%
normalised response (MCF-10A [25]): 107%
normalised response (BT-549 [26]): 68.4%
normalised response (HCC1599 [27]): 88.1%
normalised response (MDA-MB-468 [28]): 62.1%
normalised response (MDA-MB-436 [29]): 88.3%
normalised response (HDQ-P1): 91.7%
normalised response (CAL-51 [30]): 90.9%
normalised response (Hs578T [31]): 71.7%
normalised response (CAL-85-1 [32]): 74.4%
normalised response (CAL-120 [33]): 80.5%
normalised response (MDA-MB-453 [34]): 83.8%

Reference: the supplement of paper PMC4862054
